Test results: patent US20250163122A1, “COMPOSITIONS AND METHODS FOR TREATING AIRWAY MUCUS DYSFUNCTION” (BOARD OF REGENTS, THE UNIVERSITY OF TEXAS SYSTEM, priority 2022, published 2025)
Bridges are numbered along the chain shown (N, C = ends). [ ]: non-standard residue; d: D form. S5 = C=CCCC[C@](C)(N)C(=O)O

Assays:
[1] = system: Muc5ac secretion from HAECs; assay: Mucin (Muc5ac) secretion assay in HAECs; format: cell-based, human; settings: for effect on stimulated secretion / reduction of stimulated (IL-13+ATP) Muc5ac secretion: 10 μM peptide, 30 min pre-incubation, metaplastic conditions; for reduction of stimulated Muc5ac secretion: metaplastic HAECs
Procedure: Cell culture. […] Growth medium was replaced every two days. […] The apical medium was replaced after 48 h.
Mucin secretion assay in HAECs. […] In brief, for the 24 h peptide treatment, 20 μl of DMEM+/−100 μM peptides was added to the apical surface 24 h before stimulation. On the day of the assay, cells were washed 5 times with 100 μl DMEM for 1 h for each wash on the apical side. Apical supernatants were collected after every wash ([…]), then 100 μl of DMEM+/−100 μM peptides was added to the apical surface and HAECs incubated for 15 min before collecting the supernatant (baseline wash). HAECs were then incubated for an additional 15 min with 100 μl DMEM+/−100 μM ATP (Sigma) before collection of supernatants (experimental washes). Following sample collection, cells were lysed in 100 μl of lysis buffer (lysate) containing 50 mM Tris-HCl pH 7.2, 1 mM EDTA, 1 mM EGTA, 1% Triton-X (Sigma), protease inhibitor cOmplete mini EDTA-free and phosphatase inhibitor PhosSTOP (Roche, Germany). The protocol was adapted for 30 min peptide treatment as follows. After wash 5, 100 μl of DMEM+/−10 μM or 100 μM of peptides was added to the apical surface and HAECs incubated for 30 min (baseline wash). HAECs were then incubated for 30 min with 100 μl DMEM+/−100 μM ATP to collect experimental washes.
All samples were diluted 1:10 in PBS (washes and cell lysates) and 50 μl of each sample were vacuum-aspirated onto a 0.45 μm pore nitrocellulose membrane using the Bio-Dot® MicrofiltrationApparatus (Bio-Rad). […] All steps were performed at room temperature. Fluorescent signals were acquired using the Odyssey® Fc Imaging System (Li-Cor®, USA) and quantified using ImageJ (v.2.0.0; NIH, USA). Equal volumes of samples were loaded on the gels for control and peptide treatments. […] Stimulated secretion is therefore normalized to baseline secretion within individual filters to account for filter to filter heterogeneities.

[2] = system: mouse airway epithelial cells; assay: Mucin secretion without secretagogue after peptide aerosol in mice with mucous metaplasia; format: in vivo
Procedure: To investigate whether SP9 could have therapeutic benefit in vivo, SP9 conjugated to CPPs and fluorophores was introduced into mouse airways using a microsprayer inserted into the distal trachea under direct visualization with a laryngoscope. […] All subsequent studies of airway mucin secretion were therefore performed in the distal axial bronchus. […] This effect was not observed with the injection of buffer alone.
The peptide solution was injected into the airway under pressure to generate a droplet aerosol. A high concentration of peptides was used in these experiments in part because the solution is expected to be in contact with the airway epithelium only briefly and to mostly end up in the alveolar region.

[3] = system: fractional secretion of intracellular mucin in mouse airways; assay: Stimulated mucin secretion in mice (IL-13, then methacholine); format: in vivo; settings: pretreatment, aerosol 200 μM 30 min before secretagogue, IL-13 mice
Procedure: Mucin secretion and airway mucus occlusion in mice. The efficiency of stimulated mucin secretion and the extent of mucus accumulation in the airway lumen of Syt2 mutant mice were measured as described previously (Jaramillo et al, 2019). Briefly, to increase intracellular mucin content (i.e., induce mucous metaplasia), 3 μg IL-13 (BioLegend) in 40 μl PBS was instilled every other day×3 into the posterior pharynx of mice under isoflurane anesthesia to be aspirated during inhalation. […] Fractional mucin secretion was calculated as the percentage […] mucin content of mice of the same genotype treated only with IL-13. To measure intracellular airway epithelial mucin content, lungs were inflated via the trachea with 10% neutral buffered formalin to 20 cm water pressure for 24 h at 4° C., then embedded in paraffin. […] Images were acquired using an upright microscope (Olympus BX 60) with a ×40 NA 0.75 objective lens, and intracellular mucin was measured around the circumferential section of the axial bronchus using ImagePro (Media Cybernetics). Images were analyzed by investigators blinded to mouse genotype and treatment, and data are presented as the epithelial mucin volume density, signifying the measured volume of mucin overlying a unit area of epithelial baseline lamina. […]

[4] = system: airway lumenal mucus in mouse lung; assay: Airway lumenal mucus accumulation in mice; format: in vivo; settings: pretreatment, aerosol 200 μM, IL-13 then methacholine
Procedure: To measure airway lumenal mucus content, mucous metaplasia was induced as above, then mucin secretion and bronchoconstriction were induced by exposure for 10 min to an aerosol of 150 mM methacholine. Lungs were harvested and fixed by immersion for 48 h at 4° C. to avoid displacement of lumenal mucus and using methanol-based Carnoy's solution (methacarn) for fixation to minimize changes in mucus volume. A single transverse 5 μm section was taken through the axial bronchus of the left lung between lateral branches 1 and 2 and stained with PAFS as above to evaluate intracellular mucin to ensure secretion had been stimulated. […]
To measure the efficiency of stimulated mucin secretion and the extent of mucus accumulation in the airway lumen of WT mice treated with peptides, the same procedures as those used for analysis of Syt2 mutant mice were followed, except that both outcomes were measured in the same mouse by fixation of the left lung by inflation with formalin to measure mucin secretion and fixation of the right lung by immersion in methacarn to measure mucus accumulation. […] In addition, a MicroSprayer Aerosolizer (Penn-Century) was used for peptide delivery to the airways, secretion was measured in the left axial bronchus at a site 3 mm distal to the site used in the Syt2 mutant mice, and mucus accumulation was measured in the right caudal lobe.

Syt2 = Syt2 (UniProt P29101 1-422, limits assumed); assay: cell-based or functional assay
[5] = 100 μM peptide for 24 h before stimulation

Sequence of Syt2 (P29101 whole entry): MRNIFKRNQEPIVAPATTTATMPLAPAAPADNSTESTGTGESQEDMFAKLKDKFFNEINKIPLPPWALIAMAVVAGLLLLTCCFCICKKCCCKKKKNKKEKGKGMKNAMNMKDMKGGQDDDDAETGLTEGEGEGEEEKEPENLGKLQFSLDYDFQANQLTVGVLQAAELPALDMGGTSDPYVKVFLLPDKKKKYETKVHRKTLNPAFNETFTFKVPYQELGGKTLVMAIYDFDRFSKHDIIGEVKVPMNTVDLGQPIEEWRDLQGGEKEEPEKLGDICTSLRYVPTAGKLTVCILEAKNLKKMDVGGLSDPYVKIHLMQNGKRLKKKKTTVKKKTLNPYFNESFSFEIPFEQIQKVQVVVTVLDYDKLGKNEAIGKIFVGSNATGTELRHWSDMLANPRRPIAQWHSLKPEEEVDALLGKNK

Ac-EE(S5)KDA(S5)IR(S5)LVM(S5)DEQ-(C/Cy3Mal)-amide (Ac-EE[S5]KDA[S5]IR[S5]LVM[S5]DEQC-NH2; staple 10-14, 3-7; also: Cy3 maleimide on C-terminal Cys) [SP9-Cy3]
effect on stimulated secretion [1]: no effect
effect on ATP-stimulated secretion [1, 5]: no effect

H2N-GRKKRRQRRRPPQEE(S5)KDA(S5)IR(S5)LVM(S5)DEQ-(C/Cy3Mal)-amide (H-GRKKRRQRRRPPQEE[S5]KDA[S5]IR[S5]LVM[S5]DEQ-{C(Cy3 maleimide)-NH2}; staple 16-20, 23-27) [TAT-SP9-Cy3]
intracellular mucin content of cells that internalize the peptide ([2]; 300 μM aerosolized, left axial bronchus, IL-13 mouse, PAFS): low intracellular mucin content
mucin secretion after peptide aerosol without secretagogue ([2]; aerosolized 1 mM, left axial bronchus, IL-13 mice): extensive apocrine mucin secretion
mucin secretion of Cy3-labeled cells without a secretagogue (side-effect) ([2]; peptide introduced into airways of mice with mucous metaplasia): had secreted their mucin stores without stimulation
reduction of stimulated (IL-13+ATP) Muc5ac secretion [1]: 86%
reduction of stimulated Muc5ac secretion [1, 5]: 83%

H2N-GRKKRRQRRRPPQEESKDAGIRTLVMLDEQ-(C/Cy3Mal)-amide (H-GRKKRRQRRRPPQEESKDAGIRTLVMLDEQ-{C(Cy3 maleimide)-NH2}) [TAT-P9-Cy3, non-stapled control peptide with TAT and Cy3, reference compound]
effect on stimulated secretion [1]: no effect

H2N-RQIKIWFQNRRMKWKKEE(S5)KDA(S5)IR(S5)LVM(S5)DEQ-(C/Cy3Mal)-amide [PEN-SP9-Cy3]
reduction of fractional secretion of intracellular mucin stimulated by methacholine [3]: 82.3%
mucin secretion of Cy3-labeled cells without a secretagogue (side-effect) ([2]; mouse, in vivo): did not show this problem
reduction of airway lumenal mucus accumulation in the right lung [4]: 33.1%
reduction of stimulated (IL-13+ATP) Muc5ac secretion [1]: 48%
reduction of stimulated Muc5ac secretion [1, 5]: 73%

H2N-RQIKIWFQNRRMKWKKEESKDAGIRTLVMLDEQ-(C/Cy3Mal)-amide (H-RQIKIWFQNRRMKWKKEESKDAGIRTLVMLDEQ-{C(Cy3 maleimide)-NH2}) [PEN-P9-Cy3, non-stapled control peptide with penetratin and Cy3, reference compound]
effect on fractional secretion of intracellular mucin stimulated by methacholine [3]: no effect
effect on airway lumenal mucus accumulation in the right lung [4]: no effect
effect on stimulated secretion [1]: no effect

B1: SP1 (peptide)
peptide: Ac-SKD[S5]GIR[S5]LVMLDE[S5]GEQ[S5]DR-NH2
modifications: staple 15-19, 4-8
SMILES: CC[C@H](C)[C@@H]1NC(=O)CNC(=O)[C@@](C)(NC(=O)[C@H](CC(=O)O)NC(=O)[C@H](CCCCN)NC(=O)[C@H](CO)NC(C)=O)CCCC=CCCC[C@@](C)(C(=O)N[C@@H](CC(C)C)C(=O)N[C@H](C(=O)N[C@@H](CCSC)C(=O)N[C@@H](CC(C)C)C(=O)N[C@@H](CC(=O)O)C(=O)N[C@@H](CCC(=O)O)C(=O)N[C@@]2(C)CCCC=CCCC[C@@](C)(C(=O)N[C@@H](CC(=O)O)C(=O)N[C@@H](CCCNC(=N)N)C(N)=O)NC(=O)[C@H](CCC(N)=O)NC(=O)[C@H](CCC(=O)O)NC(=O)CNC2=O)C(C)C)NC(=O)[C@H](CCCNC(=N)N)NC1=O
inhibition of Ca2+-independent fusion probability, single vesicle content mixing with airway epithelial SNAREs and Syt2 (Syt2): ≤ 40%
inhibition of Ca2+-triggered cumulative fusion probability, single vesicle content mixing with airway epithelial SNAREs and Syt2 (Syt2): ≤ 70%

B2: SP4 (peptide)
peptide: Ac-SKDA[S5]IRT[S5]VM[S5]DEQ[S5]EQL-NH2
modifications: staple 12-16, 5-9
SMILES: CC[C@H](C)[C@@H]1NC(=O)[C@@](C)(NC(=O)[C@H](C)NC(=O)[C@H](CC(=O)O)NC(=O)[C@H](CCCCN)NC(=O)[C@H](CO)NC(C)=O)CCCC=CCCC[C@@](C)(C(=O)N[C@H](C(=O)N[C@@H](CCSC)C(=O)N[C@@]2(C)CCCC=CCCC[C@@](C)(C(=O)N[C@@H](CCC(=O)O)C(=O)N[C@@H](CCC(N)=O)C(=O)N[C@@H](CC(C)C)C(N)=O)NC(=O)[C@H](CCC(N)=O)NC(=O)[C@H](CCC(=O)O)NC(=O)[C@H](CC(=O)O)NC2=O)C(C)C)NC(=O)[C@H]([C@@H](C)O)NC(=O)[C@H](CCCNC(=N)N)NC1=O
inhibition of Ca2+-independent fusion probability, single vesicle content mixing with airway epithelial SNAREs and Syt2 (Syt2): ≤ 40%
inhibition of Ca2+-triggered cumulative fusion probability, single vesicle content mixing with airway epithelial SNAREs and Syt2 (Syt2): ≤ 70%

B3: SP9 (peptide)
peptide: Ac-EE[S5]KDA[S5]IR[S5]LVM[S5]DEQC-NH2
modifications: staple 10-14, 3-7
SMILES: CC[C@H](C)[C@H](NC(=O)[C@]1(C)CCCC=CCCC[C@](C)(NC(=O)[C@H](CCC(=O)O)NC(=O)[C@H](CCC(=O)O)NC(C)=O)C(=O)N[C@@H](CCCCN)C(=O)N[C@@H](CC(=O)O)C(=O)N[C@@H](C)C(=O)N1)C(=O)N[C@@H](CCCNC(=N)N)C(=O)N[C@@]1(C)CCCC=CCCC[C@@](C)(C(=O)N[C@@H](CC(=O)O)C(=O)N[C@@H](CCC(=O)O)C(=O)N[C@@H](CCC(N)=O)C(=O)N[C@@H](CS)C(N)=O)NC(=O)[C@H](CCSC)NC(=O)[C@H](C(C)C)NC(=O)[C@H](CC(C)C)NC1=O
inhibition of Ca2+-independent fusion probability, single vesicle content mixing with airway epithelial SNAREs and Syt2 (Syt2): ≤ 40%
inhibition of Ca2+-triggered cumulative fusion probability, single vesicle content mixing with airway epithelial SNAREs and Syt2 (Syt2): ≤ 70%

B4: SP10 (peptide)
peptide: Ac-SKD[S5]GIR[S5]LV[S5]LDE[S5]GEQL-NH2
modifications: staple 11-15, 4-8
SMILES: CC[C@H](C)[C@@H]1NC(=O)CNC(=O)[C@@](C)(NC(=O)[C@H](CC(=O)O)NC(=O)[C@H](CCCCN)NC(=O)[C@H](CO)NC(C)=O)CCCC=CCCC[C@@](C)(C(=O)N[C@@H](CC(C)C)C(=O)N[C@H](C(=O)N[C@@]2(C)CCCC=CCCC[C@@](C)(C(=O)NCC(=O)N[C@@H](CCC(=O)O)C(=O)N[C@@H](CCC(N)=O)C(=O)N[C@@H](CC(C)C)C(N)=O)NC(=O)[C@H](CCC(=O)O)NC(=O)[C@H](CC(=O)O)NC(=O)[C@H](CC(C)C)NC2=O)C(C)C)NC(=O)[C@H](CCCNC(=N)N)NC1=O
inhibition of Ca2+-independent fusion probability, single vesicle content mixing with airway epithelial SNAREs and Syt2 (Syt2): ≤ 40%
inhibition of Ca2+-triggered cumulative fusion probability, single vesicle content mixing with airway epithelial SNAREs and Syt2 (Syt2): ≤ 70%
